Experimental data: patent publication US20080293727A1, “Novel sulfonamide inhibitors of aspartyl protease” (priority 1992, published 2008)
pKi: −log10 of the molar value. Where a name gives a salt, the structure may show the parent alone. Read-outs that look alike come from different tables or passages of the source.

Key:
HIV-1 protease = HIV-1 protease (Human immunodeficiency virus type 1 group M subtype B, UniProt P04585); test: Inhibition constants against HIV-1 protease (method of Pennington et al.); format: biochemical; conditions: HIV-1 protease; read-out: Ki value
Description: We measured the inhibition constants of the compounds listed in Table VII against HIV-1 protease using the above-cited method of Pennington et al.

[1] = system: HIVIIIb in CCRM-CEM cells; test: Anti-viral potency in CCRM-CEM cells acutely infected with HIVIIIb, extracellular p24 antigen readout (method of Meek et al.); format: cell-based, HIV-1
Procedure: Compounds of formula I were tested for their antiviral potency in several virological assays.
The effect of the compounds on inhibiting the replication of the virus was measured by determining the HIV extracellular p24 antigen concentration using a commercial enzyme immunoassay (obtained from Coulter Corporation, Hialeah, Fla.).
In Table VIII, the following classifications have been employed: • A: inhibits HIV replication at concentration of 100 nM or less. • B: inhibits HIV replication at concentration of between 101 and 1,000 nM. • C: inhibits HIV replication at a concentration of between 1,001 and 10,000 nM. • D: inhibits HIV replication at a concentration of between 10,001 and 40,000 nM. • ND: not tested.

[2] = CCRM-CEM cells, HIV replication, read-out: IC90 Range

Compound | pKi (HIV-1 protease) | further results
CC(C)CN(CC(O)[C@H](Cc1ccccc1)NC(=O)O[C@H]1CCOC1)S(=O)(=O)c1cccnc1 (stereo partly drawn) [Compound 144, Pyridine-3-sulfonic acid ((2 syn,3S)-2-hydroxy-4-phenyl-3-((S)-tetrahydrofuran-3-yloxycarbonylamino)-butyl)-isobutyl-amide, trifluoroacetic acid salt] | 8.10 | IC90 [1, 2]: 101 to 1000 nM
CC(=O)N1CCc2ccc(S(=O)(=O)N(CC3CCCC3)CC(O)[C@H](Cc3ccccc3)NC(=O)O[C@H]3CCOC3)cc21 (stereo partly drawn) [Compound 157, 1-Acetyl-2,3-dihydro-1H-indole-6-sulfonic acid cyclopentylmethyl-((2 syn, 3S)-2-hydroxy-4-phenyl-3-((S)-tetrahydrofuran-3-yloxycarbonylamino)-butyl)-amide] | 9.15 | IC90 [1, 2]: 101 to 1000 nM
CC(C)CN(C[C@@H](O)[C@H](Cc1ccccc1)NC(=O)O[C@H]1CCOC1)S(=O)(=O)c1ccc(O)c(N)c1 [Compound 1004] | 9.70 | IC90 ([1]; Human immunodeficiency virus 1, read-out: IC90 Range): < 100 nM
CC(=O)Nc1ccc(S(=O)(=O)N(CC(C)C)CC(O)[C@H](Cc2ccccc2)NC(=O)C(CC(N)=O)C(=O)OCc2ccncc2)cc1 (stereo partly drawn) [Compound 23, N-1-(3-((4-Acetylamino-benzenesulfonyl)-isobutyl-amino)-(1S,2 syn)-1-benzyl-2-hydroxy-propyl)-2-(pyridin-4-yl-methoxycarbonyl)-succinamide] | 8.82 | IC90 [1, 2]: 101 to 1000 nM
CC(C)CN(C[C@@H](O)[C@H](Cc1ccccc1)NC(=O)O[C@H]1CCOC1)S(=O)(=O)c1ccc(N)cc1 [Compound 168, 4-Amino-N-((2 syn,3S)-2-Hydroxy-4-phenyl-3-((S)-tetrahydrofuran-3-yloxycarbonylamino)-butyl)-N-isobutyl-benzenesulfonamide] | – | IC90 ([1]; Human immunodeficiency virus 1, CCRM-CEM cells, HIV replication, read-out: IC90 Range): < 100 nM
COc1ccc(S(=O)(=O)N(CC2CCCC2)C[C@@H](O)[C@H](CC2CCCCC2)NC(=O)O[C@H]2CCOC2)cc1 [Compound 195, N-((2 syn,3S)-4-Cyclohexyl-2-hydroxy-3-((S)-tetrahydrofuran-3-yloxycarbonylamino)-butyl)-N-cyclopentylmethyl-4-methoxy-benzenesulfonamide] | 9.70 | –
CC(C)(C)OC(=O)N[C@@H](Cc1ccccc1)[C@H](O)CN(CC1CCCC1)S(=O)(=O)c1ccc(Cl)c(Cl)c1 [Compound 84] | 8.85 | –
CC(=O)Nc1ccc(S(=O)(=O)N(CC(C)C)C[C@@H](O)[C@H](Cc2ccccc2)NC(=O)[C@H](CC(N)=O)NC(=O)c2ccc3ccccc3n2)cc1F [Compound 15, (S)-N-1-(3-((4-Acetylamino-3-fluoro-benzenesulfonyl)-isobutyl-amino)-(1S,2 syn)-1-benzyl-2-hydroxy-propyl)-2-((quinoline-2-carbonyl)-amino)-succinamide] | > 10.00 | –
CC(=O)Nc1cc(S(=O)(=O)N(CC(C)C)C[C@@H](O)[C@H](Cc2ccccc2)NC(=O)OC(C)(C)C)ccc1F [Compound 54] | 7.66 | –
O=C(N[C@@H](Cc1ccccc1)[C@H](O)CN(CC1CCCC1)S(=O)(=O)c1ccc(O)cc1)O[C@H]1CCOC1 [Compound 169, N-Cyclopentylmethyl-4-hydroxy-N-((2 syn,3S)-2-hydroxy-4-phenyl-3-((S)-tetrahydrofuran-3-yloxycarbonylamino)-butyl)-benzenesulfonamide] | > 10.00 | –
O=C(N[C@@H](Cc1ccccc1)[C@H](O)CN(CC1CCCC1)S(=O)(=O)c1ccc(F)cc1)O[C@H]1CCOC1 [Compound 182, N-Cyclopentylmethyl-4-fluoro-N-((2 syn,3S)-2-hydroxy-4-phenyl-3-((S)-tetrahydrofuran-3-yloxycarbonylamino)-butyl)-benzenesulfonamide] | 9.70 | –
Cc1ccc(S(=O)(=O)N(CC(C)C)C[C@@H](O)[C@H](Cc2ccccc2)NC(=O)O[C@H]2CCOC2)cc1 [Compound 165, N-((2 syn,3S)-2-Hydroxy-4-phenyl-3-((syn)-tetrahydrofuran-3-yloxycarbonylamino)-butyl)-N-isobutyl-4-methyl-benzenesulfonamide] | 9.40 | –
C=C(C)CN(C[C@@H](O)[C@H](Cc1ccccc1)NC(=O)OC(C)(C)C)S(=O)(=O)c1ccc(F)cc1 [Compound 130] | 7.85 | –
CCC(C)C(NC(=O)OCc1ccccc1)C(=O)NC(Cc1ccccc1)C(O)CN(Cc1ccccc1)S(=O)(=O)Cc1ccccc1 (stereo not shown) [Compound 186] | 6.85 | –
CC(C)CN(C[C@@H](O)[C@H](Cc1ccccc1)NC(=O)[C@@H](NC(=O)OCc1cccnc1)C(C)C)S(=O)(=O)c1cccc2nonc12 [Compound 25] | 5.52 | –
COc1ccc(S(=O)(=O)N(CC2CCCC2)C[C@@H](O)[C@H](Cc2ccccc2)NC(=O)OCc2ccccc2OC)cc1 [Compound 179] | 9.40 | –
CC(C)(C)OC(=O)NC(Cc1ccccc1)C(O)CN(CC1CCCO1)S(=O)(=O)c1ccc(F)cc1 (stereo not shown) [Compound 129] | 7.72 | –
CC(=O)Nc1ccc(S(=O)(=O)N(CC2CCCC2)C[C@@H](O)[C@H](Cc2ccccc2)NC(=O)O[C@H]2CCOC2)cc1 [Compound 125, N-(4-(Cyclopentylmethyl-((2 syn,3S)-2-hydroxy-4-phenyl-3-((S)-tetrahydrofuran-3-yloxycarbonylamino)-butyl)-sulfamoyl)-phenyl)-acetamide] | 9.52 | –

Compound | pKi (HIV-1 protease) | further results
O=C(N[C@@H](Cc1ccccc1)[C@H](O)CN(CC1CCCC1)S(=O)(=O)c1ccc2c(c1)CCO2)O[C@H]1CCOC1 [Compound 180] | > 10.00 | –
CC(C)CN(C[C@@H](O)[C@H](Cc1ccccc1)NC(=O)OC(C)(C)C)S(=O)(=O)c1ccccc1 [Compound 45] | 8.22 | –
CC(=O)Nc1ccc(S(=O)(=O)N(CC2CCCCC2)C[C@@H](O)[C@H](Cc2ccccc2)NC(=O)O[C@H]2CCOC2)cc1 [Compound 160, N-(4-(Cyclohexylmethyl)-((2 syn,3S)-2-hydroxy-4-phenyl-3-((S)-tetrahydrofuran-3-yloxycarbonylamino)-butyl)-sulfamoyl-phenyl)-acetamide] | 9.00 | –
CC(=O)Nc1ccc(S(=O)(=O)N(CC(C)C)C[C@@H](O)[C@H](Cc2ccccc2)NC(=O)OCC(C)C)cc1 [Compound 28] | 7.77 | –
CC(C)CN(C[C@@H](O)[C@H](Cc1ccccc1)NC(=O)O[C@H]1CCOC1)S(=O)(=O)c1ccc(Cl)c(Cl)c1 [Compound 37, 3,4-Dichloro-N-((2 syn,3S)-2-hydroxy-4-phenyl-3-((S)-tetrahydrofuran-3-yloxycarbonylamino)-butyl)-N-isobutyl-benzenesulfonamide] | 10.00 | –
CC(C)CN(C[C@@H](O)[C@H](Cc1ccccc1)NC(=O)OC(C)(C)C)S(=O)(=O)c1ccc(F)cc1F [Compound 49] | 8.05 | –
C=CCOC(=O)N[C@@H](Cc1ccccc1)[C@H](O)CN(CC1CCCC1)S(=O)(=O)c1ccc2c(c1)CCN2C(C)=O [Compound 156] | 8.55 | –
Nc1ccc(S(=O)(=O)N(CC2CCCC2)C[C@@H](O)[C@H](Cc2ccccc2)NC(=O)O[C@H]2CCOC2)cc1 [Compound 171, 4-Amino-N-cyclopentylmethyl-N-((2 syn,3S)-2-hydroxy-4-phenyl-3-((S)-tetrahydrofuran-3-yloxycarbonylamino)-butyl)-benzenesulfonamide] | 9.70 | –
CC(=O)Nc1ccc(S(=O)(=O)N(CC(C)C)CC(O)C(Cc2ccccc2)NC(=O)C(CC(N)=O)NC(=O)c2ccc3ccccc3n2)cc1 (stereo not shown) [Compound 193] | 6.40 | –
CC(=O)Nc1ccc(S(=O)(=O)N(CC(C)C)C[C@@H](O)[C@H](Cc2ccccc2)NC(=O)[C@@H]2CC(=O)NC(=O)N2)cc1 [Compound 40] | 5.96 | –
C=C(C)CN(C[C@@H](O)[C@H](Cc1ccccc1)NC(=O)O[C@H]1CCOC1)S(=O)(=O)c1ccc(NC(C)=O)cc1 [Compound 134] | 8.08 | –
CC(=O)Nc1ccc(S(=O)(=O)N(CC(C)C)C[C@@H](O)[C@H](Cc2ccccc2)NC(=O)OCc2ccccc2)cc1 [Compound 61] | 8.40 | –
CC(C)CN(C[C@@H](O)[C@H](Cc1ccccc1)NC(=O)O[C@H]1CCOC1)S(=O)(=O)c1cccc(S(N)(=O)=O)c1 [Compound 112, Benzene-1,3-disulfonic acid 1-amide 3-((2 syn,3S)-2-hydroxy-4-phenyl-3-(3-(S)-tetrahydrofuran-3-yloxycarbonylamino)-butyl)-isobutyl-amide] | 8.40 | –
O=C(N[C@@H](Cc1ccccc1)[C@H](O)CN(CC1CCCC1)S(=O)(=O)c1ccccc1)O[C@H]1CCOC1 [Compound 148, N-Cyclopentylmethyl-N-((2 syn,3S)-2-hydroxy-4-phenyl-3-((S)-tetrahydrofuran-3-yloxycarbonylamino)-butyl)-benzenesulfonamide] | 9.70 | –
CC(C)CN(C[C@@H](O)[C@H](Cc1ccccc1)NC(=O)[C@H](CC(N)=O)NC(=O)c1ccc2ccccc2n1)S(=O)(=O)c1cc(S(=O)(=O)c2ccccc2)cs1 [Compound 13, (S)-N-1-(3-((4-Benzenesulfonyl-thiophene-2-sulfonyl)-isobutyl-amino)-(1S,2 syn)-1-benzyl-2-hydroxy-propyl)-2-((quinoline-2-carbonyl)-amino)-succinamide] | 9.70 | –
CC(=O)Nc1ccc(S(=O)(=O)N(CC(C)C)C[C@@H](O)[C@H](Cc2ccccc2)NC(=O)OCCc2ccccc2)cc1 [Compound 164] | 6.89 | –
CC(=O)Nc1nc(C)c(S(=O)(=O)N(CC(C)C)C[C@@H](O)[C@H](Cc2ccccc2)NC(=O)[C@H](CC(N)=O)NC(=O)c2ccc3ccccc3n2)s1 [Compound 18] | > 10.00 | –
CC(C)CN(C[C@@H](O)[C@H](Cc1ccccc1)NC(=O)O[C@H]1CCOC1)S(=O)(=O)c1cccnc1 [Compound 1003] | 8.10 | –
